Laboratory results as given in US6566074B1, “Methods of modulating cell attachment and migration” (The General Hospital Corporation, priority 1999, dated 2003).

System: FN−/−fibroblasts
Assay type: cell-based, mouse
Settings: Rho experiment: substrate 120 kDa CBD of fibronectin; substance added as supplement (Figs 5B-5D)

Substance: Lysophosphatidic acid [LPA]
- % of attached cells that assemble focal adhesions and actin stress fibers (spread morphology): 95%
